Data as given in patent US7750148B2, “Intermediate compound for the production of β-lactamase-resistant cephalosporin ester compounds and salts thereof” (Zhejiang Yongning Pharmaceutical Factory, priority 2003, dated 2010).

Assays:
[1] = tested on: Bacillus proteus 49085, Proteus morganii 49086; assay: Ex vivo antibacterial activity experiment after mouse is administered, conclusions (strains not separated); assay type: in vivo
Description: the sources of tested samples (YR-1, YR-2) and control samples (CTM, CRX, CTM+SBT 1:1 and CRX+SBT 1:1) are the same as above. Bacillus proteus 49085, Proteus morganii 49086, inoculated 10^5CFU/ML each dish. Mueller-Hinton Agar (M.H) culture medium, batch number 000707 (Shanghai Reagent Supply Research Center, China Diarrhea Disease Control). Strain: Kunming mice; source: Animal Facility of Shanghai Institute of Pharmaceutical Industry; certificate number: Hudonghezhengzi No. 107; animal numbers: 120; Sex: same number of male and female mice; Body weight: 18-21 g; fast time: 16 hours. Group 1: CTM, CRX, CTM+SBT 1:1, CRX+SBT 1:1 were given at a dosage of 500 mg/kg intravenously, collecting blood at 10 minutes, 30 minutes, 1 hour, 2 hours, 4 hours, 8 hours after administration. Group 2: […] Kunming mice were randomly divided into several groups according to body weight of empty stomach and sex. Collecting blood of three mice at different time point, anticoagulated with heparin, centrifugated and separated plasma, quantitative spotting, semi-quantitated antibacterial activity according to the size of bacterial inhibition ring.

[2] = tested on: Staphylococcus aureus 26003; assay: In vitro antibacterial activity (MIC, agar double dilution); assay type: cell-based
Description: (§1) tested samples YR-1, YR-2 were the ones prepared in example 1 and example 5 respectively, control samples were cefetamet sodium (CTM), cefuroxime sodium (CRX), cefetamet sodium+sulbactam sodium (CTM+SBT) (molar ratio 1:1), cefuroxime+sulbactam sodium (CRX+SBT) (molar ratio 1:1). All control samples (have been sold on the market) were supplied by Zhejiang Yongning pharmaceutical factory.
(§2) Staphylococcus aureus 26003, Diplococcus lanceolatus 31002, E. coli 44102, Shigella sonnet 51081, Shigella bogdii 51313, Shigella flexneri 51573, Proteus mirabilis 49005, Bacillus proteus 49085, Proteus morganii 49086, Pseudomonas aeruginosa 10124, Bacillus pneumoniae 46101, Salmonella enteritidis 50041, Salmonella typhi 50097, Citrobacter 48017, Candida ciferii 41002 were supplied by Shanghai Hygienic and Antiepidemic Station.
(§3) Mueller-Hinton Agar (M.H) culture medium, batch number 20040528 (Shanghai Reagent Supply Research Center, China Diarrhea Disease Control).
(§4) Adopted agar double dilution, inoculated using multipoint inoculator, inoculated 10^5CFU/ML each point, cultured for 24 hours at 37° C., observed and recorded the results, set the least concentration of the antibacterial drug that can inhibit bacteria growth as the minimum inhibitory concentration (MIC).

[3] = tested on: Salmonella typhi 50097; assay: as above; assay type: cell-based; conditions: 10^5CFU/ML each point, 24 hours at 37° C.
Description: as §1, §2, §3, §4

[4] = tested on: Bacillus proteus 49085; assay: as above; assay type: cell-based
Description: as §1, §2, §3, §4

[5] = tested on: Citrobacter 48017; assay: as above; assay type: cell-based
Description: as §1, §2, §3, §4

[6] = tested on: Diplococcus lanceolatus 31002; assay: as above; assay type: cell-based
Description: as §1, §2, §3, §4

[7] = tested on: E. coli 44102; assay: as above; assay type: cell-based
Description: as §1, §2, §3, §4

[8] = tested on: Bacillus pneumoniae 46101; assay: as above; assay type: cell-based
Description: as §1, §2, §3, §4

[9] = tested on: Proteus mirabilis 49005; assay: as above; assay type: cell-based
Description: as §1, §2, §3, §4

[10] = tested on: Shigella flexneri 51573; assay: as above; assay type: cell-based
Description: as §1, §2, §3, §4

[11] = tested on: Pseudomonas aeruginosa 10124; assay: as above; assay type: cell-based
Description: as §1, §2, §3, §4

[12] = tested on: Shigella bogdii 51313; assay: as above; assay type: cell-based
Description: as §1, §2, §3, §4

[13] = tested on: Salmonella enteritidis 50041; assay: as above; assay type: cell-based
Description: as §1, §2, §3, §4

[14] = tested on: Candida ciferii 41002; assay: as above; assay type: cell-based
Description: as §1, §2, §3, §4

[15] = tested on: Shigella sonnet 51081; assay: as above; assay type: cell-based
Description: as §1, §2, §3, §4

[16] = tested on: Diplococcus lanceolatus 0031; assay: as above; assay type: cell-based; conditions: Diplococcus lanceolatus 0031, 10^5CFU/ML each point, 24 hours at 37° C.
Description: as §1
Diplococcus lanceolatus 0031 was supplied by Shanghai First People's Hospital.
as §3, §4

[17] = tested on: Staphylococcus epidermidis 26069; assay: as above; assay type: cell-based; conditions: Staphylococcus epidermidis 26069, 10^5CFU/ML each point, 24 hours at 37° C.
Description: as §1
(§5) Staphylococcus epidermidis 26069 and Bacillus aerogenes 45102 were supplied by Beijing Drug & Biology Product Appraisal Bureau.
as §3, §4

[18] = tested on: Bacillus aerogenes 45102; assay: as above; assay type: cell-based
Description: as §1, §5, §3, §4

[19] = mice, intragastric administration 1000 mg/kg
[20] = read-out: MIC of the drug to bacteria

5-thia-1-aza-bicyclo [4,2,0] octane-2-ene-2-carboxylic acid, 7-[[(2-amino-4-thiazolyl) (methoxy imine) acetyl]amino]-3-methyl-8-oxo-, [[3,3-dimethyl-4,4-dioxy-7-oxo-4-thia-1-aza-bicyclo [3,2,0] heptane-2-group]carbonyloxy]oxy]methyl ester [YR-1]
blood drug concentrations ([1]; in vivo, 1000 mg/kg): stable and persistent
antibacterial activities in blood 8 hours after administration [1, 19]: can be detected
half-life period (compared with the intravenous controls) ([1]; mouse, in vivo, 1000 mg/kg): longer half-life period
MIC of the drug to bacteria ([2]; Staphylococcus aureus 26003, 10^5CFU/ML each point, 24 hours at 37° C.): 100 µg/mL
MIC of the drug to bacteria [3]: 1.56 µg/mL
MIC of the drug to bacteria ([4]; Bacillus proteus 49085, 10^5CFU/ML each point, 24 hours at 37° C.): 0.195 µg/mL
MIC of the drug to bacteria ([5]; Citrobacter 48017, 10^5CFU/ML each point, 24 hours at 37° C.): 1.56 µg/mL
MIC of the drug to bacteria ([6]; Diplococcus lanceolatus 31002, 10^5CFU/ML each point, 24 hours at 37° C.): 100 µg/mL
MIC of the drug to bacteria ([7]; E. coli 44102, 10^5CFU/ML each point, 24 hours at 37° C.): 1.56 µg/mL
MIC of the drug to bacteria ([8]; Bacillus pneumoniae 46101, 10^5CFU/ML each point, 24 hours at 37° C.): 0.78 µg/mL
MIC of the drug to bacteria ([9]; Proteus mirabilis 49005, 10^5CFU/ML each point, 24 hours at 37° C.): 0.098 µg/mL
MIC of the drug to bacteria ([10]; Shigella flexneri 51573, 10^5CFU/ML each point, 24 hours at 37° C.): 0.39 µg/mL
MIC of the drug to bacteria ([11]; Pseudomonas aeruginosa 10124, 10^5CFU/ML each point, 24 hours at 37° C.): 100 µg/mL
MIC of the drug to bacteria ([12]; Shigella bogdii 51313, 10^5CFU/ML each point, 24 hours at 37° C.): 0.39 µg/mL
MIC of the drug to bacteria ([13]; Salmonella enteritidis 50041, 10^5CFU/ML each point, 24 hours at 37° C.): 1.56 µg/mL
MIC of the drug to bacteria ([14]; Candida ciferii 41002, 10^5CFU/ML each point, 24 hours at 37° C.): 0.78 µg/mL
MIC of the drug to bacteria ([15]; Shigella sonnet 51081, 10^5CFU/ML each point, 24 hours at 37° C.): 0.39 µg/mL
MIC of the drug to bacteria [16]: 50 µg/mL
MIC of the drug to bacteria [17]: 50 µg/mL
MIC of the drug to bacteria ([18]; Bacillus aerogenes 45102, 10^5CFU/ML each point, 24 hours at 37° C.): 0.39 µg/mL

CON=C(C(=O)NC1C(=O)N2C(C(=O)OCOC(=O)C3N4C(=O)CC4S(=O)(=O)C3(C)C)=C(COC(N)=O)CSC12)c1ccco1 (stereo not shown) [YR-2, 5-thia-1-aza-bicyclo [4,2,0] octane-2-ene-2-carboxylic acid, 7-[[(2-furane (methoxy imine)acetyl)amino]-3-[[(aminocarbonyloxy)oxy]methyl]-8-oxo-, [[3,3-dimethyl-4,4-dioxy-7-oxo-4-thia-1-aza-bicyclo[3,2,0]heptane-2-group]carbonyloxy]oxy]methyl ester]
blood drug concentrations ([1]; in vivo, 1000 mg/kg): stable and persistent
antibacterial activities in blood 8 hours after administration [1, 19]: can be detected
half-life period (compared with the intravenous controls) [1, 19]: longer half-life period
MIC ([2]; Staphylococcus aureus, 26003, 24 h, read-out: MIC of the drug to bacteria): 6.25 µg/mL
MIC ([3]; Salmonella enterica, read-out: MIC of the drug to bacteria): 6.25 µg/mL
MIC ([4]; Bacillus, 49085, 24 h, read-out: MIC of the drug to bacteria): 0.78 µg/mL
MIC ([5]; Citrobacter, 48017, 24 h, read-out: MIC of the drug to bacteria): 3.13 µg/mL
MIC ([6]; 24 h, read-out: MIC of the drug to bacteria): 25 µg/mL
MIC ([7]; Escherichia coli, 44102, 24 h, read-out: MIC of the drug to bacteria): 12.5 µg/mL
MIC ([8]; Klebsiella pneumoniae, 46101, 24 h, read-out: MIC of the drug to bacteria): 12.5 µg/mL
MIC ([9]; Proteus mirabilis, 49005, 24 h, read-out: MIC of the drug to bacteria): 3.13 µg/mL
MIC ([10]; Shigella flexneri, 51573, 24 h, read-out: MIC of the drug to bacteria): 3.13 µg/mL
MIC ([11]; Pseudomonas aeruginosa, 10124, 24 h, read-out: MIC of the drug to bacteria): 100 µg/mL
MIC ([12]; Shigella, 51313, 24 h, read-out: MIC of the drug to bacteria): 1.56 µg/mL
MIC ([13]; Salmonella enterica, ENTERITIDIS, 24 h, read-out: MIC of the drug to bacteria): 12.5 µg/mL
MIC ([14]; Candida, 41002, 24 h, read-out: MIC of the drug to bacteria): 50 µg/mL
MIC ([15]; Shigella, 51081, 24 h, read-out: MIC of the drug to bacteria): 1.56 µg/mL
MIC [16, 20]: 0.78 µg/mL
MIC [17, 20]: 0.78 µg/mL
MIC ([18]; Bacillus, 45102, 24 h, read-out: MIC of the drug to bacteria): 6.25 µg/mL
